The results in this text go back to US8889677B2, “Substituted triazoles useful as mGlu5 receptor modulators” (Boehringer Ingellheim International GmbH, priority 2012, dated 2014).

T1 sequence (P41594 21-1212): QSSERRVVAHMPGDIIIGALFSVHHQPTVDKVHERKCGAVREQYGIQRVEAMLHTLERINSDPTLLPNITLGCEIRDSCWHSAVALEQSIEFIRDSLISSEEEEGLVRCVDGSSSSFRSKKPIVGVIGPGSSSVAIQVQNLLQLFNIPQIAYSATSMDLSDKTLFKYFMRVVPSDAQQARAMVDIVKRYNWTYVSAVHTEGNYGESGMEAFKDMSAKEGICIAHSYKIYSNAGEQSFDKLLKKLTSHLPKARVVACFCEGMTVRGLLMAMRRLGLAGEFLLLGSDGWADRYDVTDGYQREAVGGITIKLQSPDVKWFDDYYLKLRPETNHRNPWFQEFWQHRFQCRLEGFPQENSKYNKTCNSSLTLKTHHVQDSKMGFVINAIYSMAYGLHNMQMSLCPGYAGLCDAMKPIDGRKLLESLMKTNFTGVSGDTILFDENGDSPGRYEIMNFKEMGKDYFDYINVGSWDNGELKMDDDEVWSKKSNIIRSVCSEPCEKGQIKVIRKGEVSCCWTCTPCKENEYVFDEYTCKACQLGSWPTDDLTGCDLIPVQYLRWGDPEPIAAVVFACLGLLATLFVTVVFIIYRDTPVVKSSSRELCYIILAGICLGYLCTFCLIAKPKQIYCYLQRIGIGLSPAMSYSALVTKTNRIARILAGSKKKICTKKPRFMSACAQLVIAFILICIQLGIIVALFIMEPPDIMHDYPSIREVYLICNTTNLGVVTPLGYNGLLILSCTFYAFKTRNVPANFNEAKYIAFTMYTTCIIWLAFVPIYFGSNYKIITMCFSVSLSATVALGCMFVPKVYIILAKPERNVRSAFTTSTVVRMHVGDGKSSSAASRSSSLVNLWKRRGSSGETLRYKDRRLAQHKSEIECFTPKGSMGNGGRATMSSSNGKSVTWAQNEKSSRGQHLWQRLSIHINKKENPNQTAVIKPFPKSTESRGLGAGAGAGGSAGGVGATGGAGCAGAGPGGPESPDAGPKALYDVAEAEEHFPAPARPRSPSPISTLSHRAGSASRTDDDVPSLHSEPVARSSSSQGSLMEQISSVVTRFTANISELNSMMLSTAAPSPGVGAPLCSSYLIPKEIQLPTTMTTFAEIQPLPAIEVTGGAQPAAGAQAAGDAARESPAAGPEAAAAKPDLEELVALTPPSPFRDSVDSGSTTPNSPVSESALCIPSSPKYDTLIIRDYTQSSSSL

This assay addresses T1, human recombinant mGluR5 (Homo sapiens, UniProt P41594).
T1 construct: expressed in transfected cells; host or cells: HEK 293 cell line cultured with tetracycline, hygromycin and geneticin; tetracycline removed 3-7 days before the assay
Put plainly: positive modulation of mGluR5, calcium based FLIPR assay in HEK 293 cells. The following applies: HEK 293 cell line expressing human recombinant mGluR5; EC50 of the modulation of the glutamate response (glutamate approx. 5% basal stimulation); peak height of Ca release fluorescence signal. The protocol:
The positive modulation of mGluR5 is measured in a HEK 293 cell line expressing human recombinant mGluR5 and is detected with calcium based FLIPR assay. The cells are cultured with DMEM supplemented with 10% FCS, 2 μg/mL tetracycline, 100 μg/mL hygromycin and 500 μg/mL gneticin. The cell culture media is exchanged for tetracycline-free cell culture media 3-7 days before the assay. One day before the assay the cell culture medium is exchanged to DMEM without glutamine and phenol red and supplemented with 10% FCS, 100 μg/mL hygromycin and 500 μg/mL geneticin. On the assay day, the medium of the subconfluent cultures is removed and the cells are detached by addition of 2.5 ml EDTA (0.02%) per 175 cm2 culture flask for 1 minute. The cells are resuspend in Ringer solution (140 mM NaCl, 5 mM KCl, 2.5 mM CaCl2, 1.5 mM MgCl2, 5 mM Glucose, 10 mM Hepes; adjusted to pH 7.4 with NaOH), pooled and Ringer solution added to adjust the volume to 50 mL. The cell suspension is centrifuged for […] at 1500 U/min (425 g). The supernatant is removed and the cells washed a second time with 50 ml fresh Ringer solution and centrifuged again as before. The supernatant is again removed and the pellet resuspended in Ringer solution to 1,000,000 cells/ml (1×10^6 cells/mL). The cells are plated onto BD BioCoat Poly-D-Lysine 384 well plates (20.000 cells/well; 20 μl/well). The lid covered plates are then incubated until use at 37° C./10% CO2. For dye loading, 20 μl of Calcium-4 assay kit solution (prepared according to the manufacturer's description in Ringer solution) are added to the cells and the plates are incubated for 80 min 37° C. and then 10 min at room temperature.
Controls, Compound Dilution and Assay Execution:
Each assay plate contained wells with “high” and “low” controls:
Low controls 1% DMSO/ringer solution+basal glutamate activation (defined as 100% CTL).
High controls 10 μM CDPPB+basal glutamate activation (defined as 200% CTL).
Test compounds are dissolved and diluted in DMSO to 100-fold the desired concentrations. In a second step, the compounds are diluted in Ringer solution such that the compounds are 4-fold more concentrated than the desired final assay concentration. The final DMSO concentration was 1%.
20 μl of each compound solution are then transferred to the assay plate and the Ca2+ kinetic is measured to determine any intrinsic compound activity. After 5 min incubation in the FLIPR device, the second stimulation with 20 μl of glutamate in Ringer solution (glutamate concentration adjusted to approximately 5% basal stimulation of the maximal possible glutamate effect) is added and the kinetic Ca2+ response of the wells was measured for the modulation effect.
The peak height of the Ca release related fluorescence signal (9-66) is used for the EC50. The EC50 of the modulation is calculated over a nonlinear regression with GraphPad Prism (Table 1).
By EC50 is commonly meant the concentration needed to bring the measured effect to its halfway point. On to `COc1ccc(-c2nc(-c3ccc(F)cc3)n(CC(=O)N3CCN(c4ncc(Cl)cn4)CC3)n2)cc1` [Example 07.04.038.], for which the EC50 was found to be 0.023 µM.

With `COc1ccc(-c2nc(-c3ccc(F)cc3)n(CC(=O)N3CCN(c4cc(OC)ccn4)CC3)n2)cc1` [Example 07.04.039.], the concentration for a half-maximal effect (EC50) is 0.03 µM.

Turning to `COc1ccc(-c2nc(-c3ccc(F)cc3)nn2CC(=O)N2CCN(c3ncccn3)CC2)cc1` [Example 07.04.040.], the EC50 amounted to 0.033 µM.

On to `COc1ccc(-c2nc(-c3ccc(F)cc3)nn2CC(=O)N2CCN(c3cc(C)ccn3)CC2)cc1` [Example 07.04.041.], for which the concentration for a half-maximal effect (EC50) turned out to be 0.113 µM.

`COc1ccc(-c2nc(-c3ccc(F)cc3)nn2CC(=O)N2CCN(c3cc(OC)ncn3)CC2)cc1` [Example 07.04.042.]: the concentration giving a half-maximal response (EC50) amounted to 0.148 µM.

Take `COc1ccc(-c2nc(-c3ccc(F)cc3)nn2CC(=O)N2CCN(c3cccnn3)CC2)cc1` [Example 07.04.043.]: the EC50 turned out to be 0.334 µM.

As for `COc1ccc(-c2nc(-c3ccc(F)cc3)nn2CC(=O)N2CCN(c3ncc(Br)cn3)CC2)cc1` [Example 07.04.044.], the EC50 was found to be 0.088 µM.

`COc1ccc(-c2nc(-c3ccc(F)cc3)nn2CC(=O)N2CCN(c3ncc(Cl)cn3)CC2)cc1` [Example 07.04.045.]: the EC50 was 0.08 µM.

`O=C(Cn1nc(-c2ccc(F)cc2)nc1C1CCCC1)N1CCN(c2ncccn2)CC1` [Example 07.04.046.]: the EC50 was found to be 0.586 µM.

Turning to `O=C(Cn1nc(-c2ccc(F)cc2)nc1C1CCCC1)N1CCN(c2ccccn2)CC1` [Example 07.04.047.], the EC50 was found to be 1.38 µM.

With `Cc1ccnc(N2CCN(C(=O)Cn3nc(-c4ccc(F)cc4)nc3C3CCCC3)CC2)c1` [Example 07.04.048.], the EC50 worked out at 0.591 µM.

Consider `COc1cccc(-c2nc(-c3ccc(F)cc3)n(CC(=O)N3CCN(c4ccccn4)CC3)n2)c1` [Example 07.04.049.], for which the EC50 stood at 0.037 µM.

For `COc1cccc(-c2nc(-c3ccc(F)cc3)nn2CC(=O)N2CCN(c3ccccn3)CC2)c1` [Example 07.04.050.], the EC50 is 0.459 µM.

For `COc1cccc(-c2nc(C3CCCCC3)n(CC(=O)N3CCN(c4ncccn4)CC3)n2)c1` [Example 07.04.051.], the EC50 was 0.997 µM.

Turning to `COc1cccc(-c2nc(C3CCCCC3)n(CC(=O)N3CCN(c4cc(C)ccn4)CC3)n2)c1` [Example 07.04.052.], the concentration giving a half-maximal response (EC50) worked out at 0.898 µM.

As for `COc1cccc(-c2nc(C3CCCCC3)n(CC(=O)N3CCN(c4ccccn4)CC3)n2)c1` [Example 07.04.053.], the half-maximal effective concentration (EC50) is 1.15 µM.

Turning to `COc1ccc(-c2nc(-c3ccccc3)n(CC(=O)N3CCN(c4ccccn4)CC3)n2)cc1` [Example 07.04.054.], the EC50 was 0.1 µM.

With `CCOc1ccnc(N2CCN(C(=O)Cn3nc(-c4ccc(OC)cc4)nc3-c3ccccc3)CC2)c1` [Example 07.04.055.], the EC50 came to 0.101 µM.

As to `COc1ccc(-c2nc(-c3ccccc3)n(CC(=O)N3CCN(c4cc(OC)ccn4)CC3)n2)cc1` [Example 07.04.056.], the EC50 was 0.064 µM.

Consider `Cc1cc(-c2nc(-c3ccccc3)n(CC(=O)N3CCN(c4ncc(Br)cn4)CC3)n2)ccc1Br` [Example 07.04.057.], for which the half-maximal effective concentration (EC50) turned out to be 0.075 µM.

Take `Cc1cc(-c2nc(-c3ccccc3)n(CC(=O)N3CCN(c4ncc(Cl)cn4)CC3)n2)ccc1F` [Example 07.04.058.]: the concentration for a half-maximal effect (EC50) came out at 0.025 µM.

`Cc1cc(-c2nc(-c3ccccc3)n(CC(=O)N3CCN(c4cccnn4)CC3)n2)ccc1F` [Example 07.04.059.]: the EC50 is 0.16 µM.

With `COc1cc(N2CCN(C(=O)Cn3nc(-c4ccc(F)c(C)c4)nc3-c3ccccc3)CC2)ncn1` [Example 07.04.060.], the concentration for a half-maximal effect (EC50) was found to be 0.055 µM.

With `Cc1cc(-c2nc(-c3ccccc3)n(CC(=O)N3CCN(c4ccccn4)CC3)n2)ccc1F` [Example 07.04.061.], the concentration for a half-maximal effect (EC50) came to 0.067 µM.

As for `Cc1ccnc(N2CCN(C(=O)Cn3nc(-c4ccc(F)c(C)c4)nc3-c3ccccc3)CC2)c1` [Example 07.04.062.], the 50% effective concentration (EC50) stood at 0.057 µM.

On to `COc1ccnc(N2CCN(C(=O)Cn3nc(-c4ccc(F)c(C)c4)nc3-c3ccccc3)CC2)c1` [Example 07.04.063.], for which the EC50 was determined as 0.061 µM.

As for `COc1cnnc(N2CCN(C(=O)Cn3nc(-c4ccc(F)c(C)c4)nc3-c3ccccc3)CC2)c1` [Example 07.04.064.], the concentration for a half-maximal effect (EC50) is 0.192 µM.

For the compound `COc1cc(N2CCN(C(=O)Cn3nc(-c4ccc(F)c(C)c4)nc3C3CCCCC3)CC2)ncn1` [Example 07.04.065.], the EC50 stood at 0.296 µM.

For the compound `Cc1cc(-c2nc(C3CCCCC3)n(CC(=O)N3CCN(c4ncccn4)CC3)n2)ccc1F` [Example 07.04.066.], the 50% effective concentration (EC50) worked out at 0.101 µM.

Take `Cc1ccnc(N2CCN(C(=O)Cn3nc(-c4ccc(F)c(C)c4)nc3C3CCCCC3)CC2)c1` [Example 07.04.067.]: the EC50 was determined as 0.207 µM.

`COc1ccnc(N2CCN(C(=O)Cn3nc(-c4ccc(F)c(C)c4)nc3C3CCCCC3)CC2)c1` [Example 07.04.068.]: the EC50 was 0.246 µM.

`Cc1cc(-c2nc(C3CCCCC3)n(CC(=O)N3CCN(c4ncc(Cl)cn4)CC3)n2)ccc1F` [Example 07.04.069.]: the EC50 is 0.229 µM.

In the case of `Cc1cc(-c2nc(C3CCCCC3)n(CC(=O)N3CCN(c4ncc(Br)cn4)CC3)n2)ccc1F` [Example 07.04.070.], the 50% effective concentration (EC50) worked out at 0.318 µM.

As for `Cc1cc(-c2nc(C3CCCCC3)n(CC(=O)N3CCN(c4ccccn4)CC3)n2)ccc1F` [Example 07.04.071.], the half-maximal effective concentration (EC50) is 0.347 µM.

For `Cc1cc(-c2nc(C3CCCCC3)n(CC(=O)N3CCN(c4cccnn4)CC3)n2)ccc1F` [Example 07.04.072.], the EC50 turned out to be 0.257 µM.

In the case of `Cc1cc(-c2nc(-c3ccccc3)nn2CC(=O)N2CCN(c3ncccn3)CC2)ccc1F` [Example 07.04.073.], the EC50 came to 0.087 µM.

Regarding `COc1cc(N2CCN(C(=O)Cn3nc(-c4ccccc4)nc3-c3ccc(F)c(C)c3)CC2)ncn1` [Example 07.04.074.], the EC50 was found to be 0.325 µM.

As to `Cc1ccnc(N2CCN(C(=O)Cn3nc(-c4ccccc4)nc3-c3ccc(F)c(C)c3)CC2)c1` [Example 07.04.075.], the EC50 turned out to be 0.657 µM.

With `Cc1cc(-c2nc(-c3ccccc3)nn2CC(=O)N2CCN(c3ccccn3)CC2)ccc1F` [Example 07.04.076.], the EC50 came out at 0.22 µM.

In the case of `COc1cc(-c2nc(-c3ccc(F)cc3)nn2CC(=O)N2CCN(c3ncccn3)CC2)ccc1F` [Example 07.04.077.], the concentration giving a half-maximal response (EC50) was determined as 0.244 µM.

`COc1cc(N2CCN(C(=O)Cn3nc(-c4ccc(F)cc4)nc3-c3ccc(F)c(OC)c3)CC2)ncn1` [Example 07.04.079.]: the EC50 turned out to be 1.33 µM.

Consider `CCCc1nc(-c2ccc(F)c(C)c2)nn1CC(=O)N1CCN(c2cc(OC)ncn2)CC1` [Example 07.04.080.], for which the EC50 stood at 0.771 µM.

On to `CCCc1nc(-c2ccc(F)c(C)c2)nn1CC(=O)N1CCN(c2cc(OC)ccn2)CC1` [Example 07.04.081.], for which the concentration for a half-maximal effect (EC50) was 0.353 µM.

As to `CCCc1nc(-c2ccc(F)c(C)c2)nn1CC(=O)N1CCN(c2cc(C)ccn2)CC1` [Example 07.04.082.], the EC50 is 0.306 µM.

For `CCCc1nc(-c2ccc(F)c(C)c2)nn1CC(=O)N1CCN(c2ccccn2)CC1` [Example 07.04.083.], the 50% effective concentration (EC50) was found to be 0.497 µM.

As to `CCCc1nc(-c2ccc(F)c(C)c2)nn1CC(=O)N1CCN(c2ncncn2)CC1` [Example 07.04.084.], the EC50 was 1.6 µM.

On to `CCCc1nc(-c2ccc(F)c(C)c2)nn1CC(=O)N1CCN(c2ncccn2)CC1` [Example 07.04.085.], for which the half-maximal effective concentration (EC50) stood at 0.379 µM.

Consider `COc1cc(N2CCN(C(=O)Cn3nc(-c4ccc(F)c(C)c4)nc3C(C)C)CC2)ncn1` [Example 07.04.086.], for which the EC50 amounted to 1.17 µM.

As for `Cc1cc(-c2nc(C(C)C)n(CC(=O)N3CCN(c4ccccn4)CC3)n2)ccc1F` [Example 07.04.087.], the EC50 was 0.904 µM.

Take `COc1ccnc(N2CCN(C(=O)Cn3nc(-c4ccc(F)c(C)c4)nc3C(C)C)CC2)c1` [Example 07.04.088.]: the EC50 was found to be 0.896 µM.

As to `Cc1cc(-c2nc(C(C)C)n(CC(=O)N3CCN(c4ncccn4)CC3)n2)ccc1F` [Example 07.04.089.], the concentration giving a half-maximal response (EC50) was found to be 0.34 µM.

Turning to `Cc1ccnc(N2CCN(C(=O)Cn3nc(-c4ccc(F)c(C)c4)nc3C(C)C)CC2)c1` [Example 07.04.090.], the half-maximal effective concentration (EC50) is 1.16 µM.
